Results as given in the supplement of paper PMC10307832.

Tests used:
Assay in all cases: relative viability (nuclei count vs DMSO), 5 days (fraction); higher = more cells survive
AZ3146 + Trametinib = compound: CN1CCC(CC1)OC2=CC(=C(C=C2)NC3=NC=C4C(=N3)N(C(=O)N4C)C5CCCC5)OC [AZ3146] + CC(=O)Nc1cccc(-n2c(=O)n(C3CC3)c(=O)c3c(Nc4ccc(I)cc4F)n(C)c(=O)c(C)c32)c1 [Trametinib] (partner 0.02 µM)
In short: (§1)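 Lung cancer cell lines were seeded in 1536-well plates and dosed by pin tool the next day, with either a single drug or a fixed anchor-drug dose combined with five library-drug doses (not always all listed) spaced in √10 steps. Five days later, one step fixed the cells and stained their nuclei (final 0.05% Triton X-100, 1% formaldehyde, 1 ug/ml Hoechst), and nuclei were counted on 4× images. Relative viability is the nuclei count in treated wells divided by the count in vehicle wells, and each value is the median of duplicate plates.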

AZ3146 + AZD7762 = compound: CN1CCC(CC1)OC2=CC(=C(C=C2)NC3=NC=C4C(=N3)N(C(=O)N4C)C5CCCC5)OC [AZ3146] + NC(=O)Nc1cc(-c2cccc(F)c2)sc1C(=O)N[C@H]1CCCNC1 [AZD7762] (partner 0.2 µM)
In short: as §1

GSK-J4 + Decitabine = compound: CCOC(=O)CCNc1cc(N2CCc3ccccc3CC2)nc(-c2ccccn2)n1 [GSK-J4] + Nc1ncn([C@H]2C[C@H](O)[C@@H](CO)O2)c(=O)n1 [Decitabine] (partner 2 µM)
In short: as §1

GSK-J4 + Pictilisib = compound: CCOC(=O)CCNc1cc(N2CCc3ccccc3CC2)nc(-c2ccccn2)n1 [GSK-J4] + CS(=O)(=O)N1CCN(Cc2cc3nc(-c4cccc5[nH]ncc45)nc(N4CCOCC4)c3s2)CC1 [Pictilisib] (partner 1 µM)
In short: as §1

Cell Line	relative viability (AZ3146 + Trametinib; first compound 0.08 µM)	relative viability (AZ3146 + Trametinib; first compound 0.253 µM)	relative viability (AZ3146 + Trametinib; first compound 0.8 µM)	relative viability (AZ3146 + Trametinib; first compound 2.53 µM)	relative viability (AZ3146 + Trametinib; first compound 8 µM)	relative viability (AZ3146 + AZD7762; first compound 0.08 µM)	relative viability (AZ3146 + AZD7762; first compound 0.253 µM)	relative viability (AZ3146 + AZD7762; first compound 0.8 µM)	relative viability (AZ3146 + AZD7762; first compound 2.53 µM)	relative viability (AZ3146 + AZD7762; first compound 8 µM)	relative viability (GSK-J4 + Decitabine; first compound 0.5 µM)	relative viability (GSK-J4 + Decitabine; first compound 1.581 µM)	relative viability (GSK-J4 + Decitabine; first compound 5 µM)	relative viability (GSK-J4 + Decitabine; first compound 15.81 µM)	relative viability (GSK-J4 + Decitabine; first compound 50 µM)	relative viability (GSK-J4 + Pictilisib; first compound 0.5 µM)	relative viability (GSK-J4 + Pictilisib; first compound 1.581 µM)	relative viability (GSK-J4 + Pictilisib; first compound 5 µM)	relative viability (GSK-J4 + Pictilisib; first compound 15.81 µM)	relative viability (GSK-J4 + Pictilisib; first compound 50 µM)
HCC-827	0.63	0.498	0.481	0.554	0.477	0.154	0.17	0.188	0.212	0.213	0.345	0.31	0.482	0.292	0.31	0.945	1.13	1.14	0.949	1.03
HOP-62	0.451	0.354	0.325	0.387	0.389	0.276	0.61	0.485	0.582	0.791	0.257	0.233	0.2	0.193	0.225	0.735	0.322	0.762	0.76	0.387
IA-LM																0.376	0.202	0.489	0.251	0.0942
LC-2-ad	0.858	0.928	0.928	0.894	0.902	0.75	0.841	0.822	0.886	0.78	0.746	0.803	0.866	0.776	0.793	0.548	0.458	0.622	0.547	0.322
LCLC-97TM1	0.268	0.2	0.157	0.184	0.223	0.311	0.339	0.262	0.381	0.273	0.213	0.237	0.225	0.262	0.215			0.399	0.249	0.15
LCLC-103H	0.619	0.663	0.721	0.666	0.653	0.623	0.714	0.767	0.789	0.831	0.784	0.624	0.786	0.722	0.572	0.704	0.6	0.542	0.691	0.627
LK-2	0.591	0.684	0.956	0.914	0.747			0.372	0.347	0.286	0.222	0.283	0.447	0.262	0.338	0.573	0.531	0.736	0.456	0.443
NCI-H520	0.643	0.691	0.54	0.677	0.49						0.51	0.336	0.541	0.502	0.446	0.269	0.236	0.303	0.275	0.414
NCI-H522	0.749	0.687	0.747	0.64	0.74	0.803	0.57	0.807	0.698	0.577	0.776	0.611		0.573	0.651					
NCI-H661	0.588	0.519	0.572	0.555	0.47						0.548	0.5	0.485	0.497	0.441	0.484	0.463	0.331	0.339	0.342
NCI-H1299																0.733	0.802	0.849	0.705	0.327
NCI-H1563																0.695	0.719	0.62	0.709	0.619
NCI-H1648			0.219	0.563	0.568			0.863	0.757	0.624	0.569		0.718		0.482					
NCI-H1650	0.594	0.546	0.602	0.492	0.414						0.522	0.343	0.423	0.416	0.294	0.644	0.258	0.622	0.533	0.291
NCI-H1703						0.104	0.164	0.106		0.183						0.254	0.259	0.232	0.195	0.275
NCI-H2009	0.286	0.301	0.271	0.273	0.238						0.348	0.358	0.313	0.319	0.297	0.816	0.317	0.673	0.85	0.428
NCI-H2023	0.55	0.473	0.616	0.538	0.442						0.212	0.195	0.209	0.174	0.195	0.303	0.182	0.332	0.264	0.132
NCI-H2228	0.415	0.539	0.33	0.44	0.455											0.337	0.304	0.539	0.389	0.47
NCI-H2342	0.715	0.741	0.989	0.89	0.89	0.472	0.481	0.489	0.521	0.529	0.645	0.691	0.776	0.75	0.7					
SK-LU-1	0.475	0.409	0.436	0.549	0.432						0.653	0.605	0.538	0.633	0.524	0.565	0.543	0.483	0.512	0.408
SK-MES-1	0.549	0.579	0.585	0.555	0.544						0.389	0.359	0.386	0.321	0.323	0.37	0.265	0.394	0.348	0.34
SW 900	0.696		0.557	0.706	0.819	0.527		0.59	0.767	0.519	0.376	0.354	0.469	0.48	0.343					
SW 1573	0.541	0.63	0.663	0.591	0.45						0.592	0.645	0.436	0.442	0.204	0.526	0.562	0.549	0.544	0.294
